The structures appear in SMILES notation. Like-named read-outs stand apart in the source and are kept apart here.

Test [1] has as its system HSV-1 Strain F. The test is described as follows: Viral qPCR assay, HSV-1. The note with it: Vero or MRC5 cells, 0.0005-0.004 pfu/cell, growth medium, viral genome copies by qPCR, read-out: HSV1 Cell (EC50). The class given is cell-based, Herpes Simplex Virus type 1. The protocol:
(§1) MRC5 cells, Vero cells, and MeWo cells were obtained from ATCC, and were maintained at 37° C./5% CO2/90% relative humidity in Minimal Essential Medium with 10% fetal bovine serum, […] L-glutamine, 100 units/ml penicillin and 100 ug/ml streptomycin. Assay plates were prepared by dispensing compounds dissolved in DMSO into wells of 384 well collagen-coated plates using an ECHO acoustic dispenser. Each compound was tested in a 10-point, serial 3-fold dilution. Controls included uninfected cells and infected cells treated only with DMSO. Assays were initiated by mixing selected cells, in suspension, with virus, and dispensing 50 μl/well infected cells to pre-plated compounds. Plates were incubated at 37° C./5% CO2/90% relative humidity for ˜72 hrs to permit genomic replication, and infected cells were lysed by the addition of an equal volume of lysis buffer (10 mM Tris-HCl, pH8, 50 mM KCl, 2 mM MgCl2, 0.45% NP-40, 0.45% Tween-20, and 100 μg/ml proteinase K). An aliquot of the lysate was transferred to a 384-well PCR plate and incubated at 56° C. for 1 hour and then at 95° C. for 10 min. Levels of a viral gene and of the cellular control, PPIA (Thermo Fisher Assay ID=Hs04194521_s1), were measured in separate 10 ul qPCR assays using TaqMan® Gene Expression Master Mix (Applied Biosystems), and an 7900HT Fast Real-Time PCR System with 384-Well Block Module. 7-point, serial 10-fold dilutions of a plasmid standard were run on each plate to generate a standard curve, and genome copies numbers were calculated by plotting experimental Ct onto linear regression of the standard curve. Viral genome copy numbers were normalized by cellular control copy number, and compound effects were normalized to the window defined by the controls. Calculated % effects were fit using a 4-parameter algorithm, and EC50 was reported.
(§2) MRC5 cells, Vero cells, and MeWo cells were obtained from ATCC, and were maintained at 37° C./5% CO2/90% relative humidity in Minimal Essential Medium with 10% fetal bovine serum, […] L-glutamine, 100 units/ml penicillin and 100 ug/ml streptomycin. Assay plates were prepared by dispensing compounds dissolved in DMSO into wells of 384 well collagen-coated plates using an ECHO acoustic dispenser. Each compound was tested in a 10-point, serial 3-fold dilution. Controls included uninfected cells and infected cells treated only with DMSO. Assays were initiated by mixing selected cells, in suspension, with virus, and dispensing 50 μl/well infected cells to pre-plated compounds. Plates were incubated at 37° C./5% CO2/90% relative humidity for ˜72 hrs to permit genomic replication, and infected cells were lysed by the addition of an equal volume of lysis buffer (10 mM Tris-HCl, pH 8, 50 mM KCl, 2 mM MgC12, 0.45% NP-40, 0.45% Tween-20, and 100 μg/ml proteinase K). An aliquot of the lysate was transferred to a 384-well PCR plate and incubated at 56° C. for 1 hour and then at 95° C. for 10 min. Levels of a viral gene were measured in 10 ul qPCR assays using TaqMan® Gene Expression Master Mix (Applied Biosystems), and an 7900HT Fast Real-Time PCR System with 384-Well Block Module. 7-point, serial 10-fold dilutions of a plasmid standard were run on each plate to generate a standard curve, and genome copies numbers were calculated by plotting experimental Ct onto linear regression of the standard curve. Compound effects on viral genome copy number were normalized to the window defined by the controls. Calculated % effects were fit using a 4-parameter algorithm, and ECso was reported.
HSV-1: Strain F […] was assayed in Vero or MRC5 cells and was used at 0.0005-0.004 pfu/cell in growth medium. Primer-probe set was Thermo Fisher Assay ID=AIBJZIB
Background: Quantitative PCR measures a nucleic acid by following its amplification.

The test system of test [2] is VZV. Kind of test: Viral qPCR assay, VZV. The format is cell-based, varicella zoster virus. The note with it: MeWo or MRC5 cells, 0.04-0.1 pfu/cell, growth medium, viral genome copies by qPCR. As for the experimental part:
as §1, §2
VZV: Strain Street was maintained as an infected cell stock in MRC-5 cells. It was assayed in MeWo or MRC5 cells and was used at 0.04-0.1 pfu/cell. The assays were performed in growth medium. Primer-probe set was Thermo Fisher Assay ID=AIPAEXQ.

The target in test [3] is T1, Human cytomegalovirus DNA polymerase (Human cytomegalovirus, UniProt P08546).
T1 construct: made in house; host or cells: SF21 insect cells (baculovirus vector)
The test is described as follows: CMV polymerase assay (AlphaLISA). The class given is biochemical. The conditions noted are these: HCMV polymerase 0.2 nM; 30 min pre-incubation; 60 min at 37° C.; read-out: CMV (IC50). As for the experimental part:
Human cytomegalovirus and varicella zoster virus DNA polymerases were expressed via baculovirus vector in SF21 cells and purified. Heterodimeric nucleic acid substrate used in the herpesvirus polymerase reactions was generated by annealing a 59-mer template to a 17-mer digoxigenin-labeled primer. Polymerase (HCMV final concentration of 0.2 nM; VZV final concentration of 0.4 nM) was combined with an inhibitor compound or DMSO in assay buffer (10 mM HEPES, pH 7.5, 25 mM KCl, 25 mM NaCl, 5 mM MgCl2, 5% glycerol, 0.67 mg/ml bovine serum albumin, and 1 mM tris(2-carboxyethyl)phosphine), and this mixture was pre-incubated for 30 minutes at room temperature in 384-well microtiter plates. The polymerization reaction was initiated by the addition of template/primer substrate (final concentration: 1.6 nM), and dNTPs (final concentration: 24 nM dCTP, 24 nMdGTP, 16 nM dATP, 16 nM dTTP, and 0.8 nM biotin-dUTP). After 60 min incubation at 37° C., reactions were terminated with quench buffer (25 mM HEPES pH 7.5, 100 mM NaCl, 0.25% Tween-20, 12 mM EDTA, and 1 mg/ml bovine serum albumin). Incorporation of biotinylated UTP was detected with 2.5-5 ug/ml anti-DIG AlphaLISA acceptor beads and 5-10 ug/ml streptavidin AlphaLISA donor beads (PerkinElmer). Compound effects were normalized to the window defined by the controls (DMSO only and pre-quenched wells) and were fit using a 4-parameter algorithm to report an IC50.
A general note: Alpha assays give light when donor and acceptor beads are brought close together.

The test system of test [4] is HCMV Strain AD169. The test is described as follows: Viral qPCR assay, HCMV. The format is cell-based, Human cytomegalovirus. The note with it: MRC-5 cells, 0.05-0.1 pfu/cell, growth media or 50% fetal bovine serum, viral genome copies by qPCR, read-out: CMV Cell (EC50). The protocol: as §1, §2
HCMV: Strain AD169 Street was assayed in MRC-5 cells and was used at 0.05-0.1 pfu/cell. The assays were performed in either growth media or in the same media with 50% fetal bovine serum. Primer-probe set was Thermo Fisher Assay ID=AIFATFK.

[5] abbreviates: Human betaherpesvirus 5, AD169, MRC5, 72 h.

T1 sequence (P08546 whole entry): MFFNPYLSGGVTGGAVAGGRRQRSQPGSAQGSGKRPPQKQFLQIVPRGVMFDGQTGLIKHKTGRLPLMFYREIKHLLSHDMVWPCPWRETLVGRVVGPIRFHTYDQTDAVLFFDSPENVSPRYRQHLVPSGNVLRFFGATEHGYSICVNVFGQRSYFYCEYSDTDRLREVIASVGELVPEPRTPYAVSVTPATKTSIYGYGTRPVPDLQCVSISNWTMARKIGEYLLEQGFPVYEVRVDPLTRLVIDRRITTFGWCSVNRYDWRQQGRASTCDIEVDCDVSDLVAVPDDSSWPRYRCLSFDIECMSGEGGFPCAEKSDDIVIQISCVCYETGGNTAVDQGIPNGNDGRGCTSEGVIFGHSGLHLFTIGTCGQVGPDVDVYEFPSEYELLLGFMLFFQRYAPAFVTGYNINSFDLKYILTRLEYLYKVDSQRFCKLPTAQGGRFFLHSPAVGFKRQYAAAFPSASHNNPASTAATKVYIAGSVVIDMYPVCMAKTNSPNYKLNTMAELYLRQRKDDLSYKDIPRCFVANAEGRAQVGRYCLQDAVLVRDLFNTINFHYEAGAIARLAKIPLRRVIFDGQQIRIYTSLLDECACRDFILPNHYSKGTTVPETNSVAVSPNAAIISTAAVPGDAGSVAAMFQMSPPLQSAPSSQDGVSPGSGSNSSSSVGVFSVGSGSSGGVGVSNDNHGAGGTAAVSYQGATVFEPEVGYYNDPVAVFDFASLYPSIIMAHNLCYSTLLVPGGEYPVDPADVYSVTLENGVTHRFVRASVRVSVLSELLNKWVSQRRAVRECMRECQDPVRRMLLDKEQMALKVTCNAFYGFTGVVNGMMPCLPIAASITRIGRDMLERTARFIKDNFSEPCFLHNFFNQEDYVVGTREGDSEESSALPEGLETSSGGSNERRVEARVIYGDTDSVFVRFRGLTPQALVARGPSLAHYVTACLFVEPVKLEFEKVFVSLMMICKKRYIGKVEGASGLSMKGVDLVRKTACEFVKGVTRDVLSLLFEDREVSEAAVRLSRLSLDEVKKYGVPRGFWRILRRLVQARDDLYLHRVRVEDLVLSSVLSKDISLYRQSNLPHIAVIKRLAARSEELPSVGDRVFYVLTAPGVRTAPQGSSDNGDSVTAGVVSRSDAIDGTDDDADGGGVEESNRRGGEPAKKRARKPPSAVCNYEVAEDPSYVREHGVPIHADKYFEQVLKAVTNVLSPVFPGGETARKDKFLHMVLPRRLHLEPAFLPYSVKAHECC

Take `COc1nc(-c2cnn(C(F)F)c2)c(O[C@H]2CCN3C(=O)OC[C@@H]3C2)cc1C(=O)NCc1cc(F)c(Cl)c(F)c1` [Compound 57]: the EC50 in test [1] (Human alphaherpesvirus 1, 72 h) came to 207 nM; in test [2] (Human alphaherpesvirus 3, 72 h), 364 nM; in test [4] (setting [5]) it was 538 nM. Moreover, the IC50 in test [3] was 6.13 nM.
The like results for `COc1nc(-c2cnn(C(F)F)c2)c(O[C@H]2CCN3C(=O)OC[C@@H]3C2)cc1C(=O)NCc1ccc(C#N)cc1F` [Compound 59] were, in that order, 80.6 nM, 160 nM, 324 nM and 3.25 nM.
The like results for `COc1nc(-c2cnc(C3CC3)s2)c(O[C@H]2CCN3C(=O)OC[C@@H]3C2)cc1C(=O)NCc1ccc(Cl)cc1` [Compound 63] were, in that order, 148 nM, 167 nM, 164 nM and 8.74 nM.
On the same counts, the results for `COc1nc(-c2ncco2)c(O[C@H]2CCN3C(=O)OC[C@@H]3C2)cc1C(=O)N[C@@H](C)c1ccc(Cl)cc1` [Compound 64] are 597 nM, 1560 nM, 911 nM and 69.3 nM.
On to `COc1nc(N2CC3(CC(O)C3)C2)c(O[C@H]2CCN3C(=O)OC[C@@H]3C2)cc1C(=O)NCc1ccc(Cl)cc1` [Compound 66], for which the EC50 is 262 nM in test [1] (Human alphaherpesvirus 1, 72 h); 648 nM in test [2] (Human alphaherpesvirus 3, 72 h); 146 nM in test [4] (setting [5]). The IC50 in test [3] came to 5.23 nM.
Consider `COc1nc(N2CCC(C(C)(C)O)C2)c(O[C@H]2CCN3C(=O)OC[C@@H]3C2)cc1C(=O)NCc1ccc(Cl)cc1` (some centres unmarked) [Compound 67], for which the EC50 was determined as 568 nM in test [1] (Human alphaherpesvirus 1, 72 h); 2270 nM in test [2] (~72 hrs); 368 nM in test [4] (setting [5]). For the same compound, the IC50 in test [3] is 22.9 nM.
Take `COc1nc(N2CCC(C(C)(C)O)C2)c(O[C@H]2CCN3C(=O)OC[C@@H]3C2)cc1C(=O)NCc1ccc(Cl)cc1` (some centres unmarked) [Compound 68]: the EC50 in test [1] (~72 hrs) came out at 654 nM; in test [2] (~72 hrs), 661 nM; in test [4] (~72 hrs), 265 nM. In addition, the IC50 in test [3] worked out at 28.7 nM.
Take `COc1nc(CC(C)(C)O)c(O[C@H]2CCN3C(=O)OC[C@@H]3C2)cc1C(=O)NCc1ccc(Cl)cc1` [Compound 73]: the EC50 in test [1] (Human alphaherpesvirus 1, 72 h) amounted to 575 nM; in test [2] (Human alphaherpesvirus 3, 72 h), 828 nM; in test [4] (setting [5]), 339 nM. Also, in test [3], the half-maximal inhibitory concentration (IC50) was found to be 20.9 nM.
The like results for `COc1nc(C2CC3(CC(O)C3)C2)c(O[C@H]2CCN3C(=O)OC[C@@H]3C2)cc1C(=O)NCc1ccc(Cl)cc1` (some centres unmarked) [Compound 76] were, in that order, 293 nM, 778 nM, 519 nM and 32.1 nM.
On the same counts, the results for `COc1nc(CC(C)(C)N)c(O[C@H]2CCN3C(=O)OC[C@@H]3C2)cc1C(=O)NCc1ccc(Cl)cc1` [Compound 81] are 2880 nM, 3650 nM, 558 nM and 88.6 nM.
The like results for `Cc1nsc(-c2nc(OCC(C)(C)O)c(C(=O)NCc3ccc(Cl)cc3)cc2O[C@H]2CCN3C(=O)OC[C@@H]3C2)n1` [Compound 87] were, in that order, 140 nM, 207 nM, 108 nM and 5.13 nM.
Turning to `CN(C)CCOc1nc(-c2cnn(C(F)F)c2)c(O[C@H]2CCN3C(=O)OC[C@@H]3C2)cc1C(=O)NCc1ccc(Cl)cc1` [Compound 88], the EC50 in test [1] (Human alphaherpesvirus 1, 72 h) worked out at 257 nM; in test [2] (Human alphaherpesvirus 3, 72 h), 317 nM; in test [4] (setting [5]) it was 32.5 nM. In addition, the IC50 in test [3] is 3.16 nM.
On the same counts, the results for `O=C(NCc1ccc(Cl)cc1)c1cc(O[C@H]2CCN3C(=O)OC[C@@H]3C2)c(-c2cnn(C(F)F)c2)nc1OCCF` [Compound 89] are 203 nM, 246 nM, 195 nM and 12.1 nM.
On the same counts, the results for `CC1(COc2nc(-c3cnn(C(F)F)c3)c(O[C@H]3CCN4C(=O)OC[C@@H]4C3)cc2C(=O)NCc2ccc(Cl)cc2)COC1` [Compound 90] are 180 nM, 286 nM, 131 nM and 9.83 nM.

In general, EC50 refers to the concentration giving half of the maximal effect. As usually defined, the IC50 is the concentration at which inhibition is half-maximal.

These data come from patent publication US20240083910A1, “AMIDO-SUBSTITUTED PYRIDYL COMPOUNDS AND METHODS OF USE THEREOF FOR THE TREATMENT OF HERPESVIRUSES” (Merck Sharp & Dohme LLC, priority 2020, published 2024).
